{"source": "paper PMC3063489", "about": "(Molecular and biochemical parasitology, 2011)", "key": {"GFP-SmDAT": {"biological_target": "GFP-SmDAT (Schistosoma mansoni, UniProt E9LD23)", "format": "cell-based", "details": "COS-7 cells; for uptake of tritiated substrate by SmDAT: 100 nM of each substrate, normalized to dopamine uptake (Fig. 2A)"}, "Schistosoma": {"system": "Schistosoma", "details": "cited from earlier work"}, "[1]": {"system": "Schistosoma mansoni adult worms", "details": "adult worms treated with dopamine; cited from earlier work"}, "hDAT": {"biological_target": "hDAT (Homo sapiens, UniProt Q01959)", "sequence (Q01959 whole entry)": "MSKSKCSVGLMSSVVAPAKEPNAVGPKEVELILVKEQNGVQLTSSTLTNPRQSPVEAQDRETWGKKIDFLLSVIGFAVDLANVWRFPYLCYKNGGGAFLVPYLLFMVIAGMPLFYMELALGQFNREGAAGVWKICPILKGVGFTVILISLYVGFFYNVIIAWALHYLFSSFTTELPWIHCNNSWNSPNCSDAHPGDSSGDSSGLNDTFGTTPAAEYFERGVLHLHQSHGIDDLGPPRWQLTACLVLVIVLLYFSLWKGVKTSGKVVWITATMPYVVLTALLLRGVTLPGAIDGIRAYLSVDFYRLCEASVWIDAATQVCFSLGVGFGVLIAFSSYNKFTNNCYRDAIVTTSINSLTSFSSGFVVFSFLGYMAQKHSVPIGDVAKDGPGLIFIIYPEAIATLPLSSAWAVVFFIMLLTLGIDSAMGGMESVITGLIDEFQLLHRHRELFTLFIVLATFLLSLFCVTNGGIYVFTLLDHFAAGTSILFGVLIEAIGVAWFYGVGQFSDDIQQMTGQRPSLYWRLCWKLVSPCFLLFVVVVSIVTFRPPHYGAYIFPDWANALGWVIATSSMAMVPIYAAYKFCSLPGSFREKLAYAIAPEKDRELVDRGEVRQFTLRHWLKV", "details": "COS-7 cells"}}, "note": "Read-outs that look alike come from different tables or passages of the source.", "data": [{"molecule": "NCCc1c[nH]c2ccc(O)cc12", "note": "[serotonin]", "values": [{"measurement": "uptake of tritiated substrate by SmDAT", "setting": "GFP-SmDAT", "value": "could not detect any detectable levels"}]}, {"molecule": "O=C(C1CCCCC1)N1CC(=O)N2CCc3ccccc3C2C1", "note": "(stereo not shown) [praziquantel]", "values": [{"measurement": "activity on immature worms and eggs", "setting": "Schistosoma", "value": "not active"}]}, {"molecule": "NCCc1ccc(O)c(O)c1", "note": "[dopamine]", "values": [{"measurement": "effect on adult worms", "setting": "[1]", "value": "relaxation of muscles and a lengthening of the worms"}, {"measurement": "Vmax of dopamine uptake, hDAT", "setting": "hDAT", "value": "0.9 ± 0.2", "unit": "pmol/well/min"}, {"measurement": "Vmax of dopamine uptake, GFP-SmDAT", "setting": "GFP-SmDAT", "value": "0.16 ± 0.04", "unit": "pmol/well/min"}, {"measurement": "Vmax of dopamine uptake, GFP-SmDAT", "setting": "GFP-SmDAT; unit as printed in legend of Fig. 2", "value": "0.16 ± 0.04", "unit": "pmol/min"}]}, {"molecule": "NC[C@H](O)c1ccc(O)c(O)c1", "note": "[Norepinephrine]", "values": [{"measurement": "uptake of tritiated substrate by SmDAT", "setting": "GFP-SmDAT", "value": "low but significant levels"}]}]}
